Laboratory results as given in paper PMC3557747 (Bioorganic & medicinal chemistry letters, 2012).
Like-named read-outs stand apart in the source and are kept apart here.

What was measured:
[1] = tested on: human IMPDH2; details: read-out: IC50 human IMPDH2; cited from earlier work
[2] = tested on: human IMPDH1; details: read-out: IC50 human IMPDH1; cited from earlier work
[3] = 50 μM; cited from earlier work
[4] = target: T1, CpIMPDH (Cryptosporidium parvum, UniProt Q8T6T2); details: with respect to NAD+, cited from earlier work
T1 sequence (Q8T6T2 1-400): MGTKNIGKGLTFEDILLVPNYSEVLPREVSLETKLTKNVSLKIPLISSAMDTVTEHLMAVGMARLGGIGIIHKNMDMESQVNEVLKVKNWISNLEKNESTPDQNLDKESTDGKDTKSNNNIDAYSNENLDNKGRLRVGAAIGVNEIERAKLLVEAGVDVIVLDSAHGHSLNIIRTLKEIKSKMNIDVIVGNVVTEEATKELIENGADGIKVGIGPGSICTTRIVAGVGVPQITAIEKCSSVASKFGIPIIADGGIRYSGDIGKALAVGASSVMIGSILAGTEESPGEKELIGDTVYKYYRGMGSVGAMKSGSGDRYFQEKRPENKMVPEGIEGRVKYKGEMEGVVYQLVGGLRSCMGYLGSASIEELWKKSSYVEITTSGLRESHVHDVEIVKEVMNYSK

[5] = tested on: T. gondii/CpIMPDH; assay: Antiparasitic activity in Toxoplasma gondii model of C. parvum infection; details: cultured in hTERT-immortalized human foreskin fibroblasts
[6] = target: T1, CpIMPDH; assay: Mechanism of CpIMPDH inhibition with respect to NAD+; assay type: biochemical
[7] = tested on: C. parvum; assay: IL12 knockout mouse model of C. parvum infection; assay type: in vivo; details: 250 mg/kg oral once per day for seven days

For `COc1ccc(NC(=O)Cc2nn(C)c(=O)c3ccccc23)cc1` [Compound 1], the IC50 [1] is given as greater than 50 µM, the IC50 [2] is given as greater than 50 µM and the antiparasitic activity [3] is given as “did not display antiparasitic activity”. For the same molecule, the Ki ([4]; read-out: Kis) was 1.8 µM and the mode of inhibition [4] was “mixed inhibitor”.

For `Cn1nc(CC(=O)Nc2ccc(Br)c(C(F)(F)F)c2)c2ccccc2c1=O` [Compound 26], the “EC50 Toxo/CpIMPDH” value [5] was “sub-micromolar activity”.

With `Cn1nc(CC(=O)Nc2ccc(Cl)c(C(F)(F)F)c2)c2ccccc2c1=O` [Compound 27] the mode of inhibition [6] was “pure noncompetitive inhibitor”, the “antiparasitic activity in vivo” value [7] was “no antiparasitic activity was observed” and the “EC50 Toxo/CpIMPDH” value [5] was “sub-micromolar activity”.

With `Cn1nc(CC(=O)Nc2ccc3oc4c(c3c2)CCCC4)c2ccccc2c1=O` [Compound 53] the “EC50 Toxo/CpIMPDH” value [5] was “sub-micromolar activity”.

For `Cn1nc(CC(=O)Nc2ccc3oc4ccccc4c3c2)c2ccccc2c1=O` [Compound 54], the “EC50 Toxo/CpIMPDH” value [5] was “sub-micromolar activity”.
